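Tested at 5 concentrations; 48 h exposure; 96-well plates; endpoints linearly interpolated, else capped at highest concentration. At the GI50, growth is halved.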 The source made the active and inactive calls. No stated cut-off is given here; in the data, active = GI50 up to about 1.1 µM and inactive = higher.
Columns and labels:
Experiment in all cases: DTP human tumour cell line panel, 48 h
[1] = test system: 786-0
[2] = test system: A498
[3] = test system: A549
[4] = test system: ACHN
[5] = test system: BT-549
[6] = test system: CAKI-1
[7] = test system: CCRF-CEM
[8] = test system: COLO 205
[9] = test system: DU-145
[10] = test system: EKVX
[11] = test system: HCC 2998
[12] = test system: HCT-116
[13] = test system: HCT-15
[14] = test system: HL-60
[15] = test system: HOP-62
[16] = test system: HOP-92
[17] = test system: HT-29
[18] = test system: Hs-578T
[19] = test system: IGROV-1
[20] = test system: K562
[21] = test system: KM12
[22] = test system: LOX IMVI
[23] = test system: M14
[24] = test system: MCF7
[25] = test system: MDA-MB-231
[26] = test system: MDA-MB-435
[27] = test system: MDA-N
[28] = test system: MOLT-4
[29] = test system: NCI-H226
[30] = test system: NCI-H23
[31] = test system: NCI-H522
[32] = test system: NCI/ADR-RES
[33] = test system: OVCAR-3
[34] = test system: OVCAR-4
[35] = test system: OVCAR-5
[36] = test system: OVCAR-8
[37] = test system: PC-3
[38] = test system: RPMI-8226
[39] = test system: SF-268
[40] = test system: SF-295
[41] = test system: SF-539
[42] = test system: SK-MEL-28
[43] = test system: SK-MEL-2
[44] = test system: SK-MEL-5
[45] = test system: SK-OV-3
[46] = test system: SN12C
[47] = test system: SNB-19
[48] = test system: SR
[49] = test system: SW-620
[50] = test system: T47D
[51] = test system: TK-10
[52] = test system: U-251
[53] = test system: UACC-257
[54] = test system: UACC-62
[55] = test system: UO-31

SMILES: O=C(c1ccccn1)C1(N2CCCCC2)CCCCC1
- GI50 [1]: > 100 µM (inactive)
- GI50 [2]: > 100 µM (inactive)
- GI50 [3]: > 100 µM (inactive)
- GI50 [4]: > 100 µM (inactive)
- GI50 [5]: > 100 µM (inactive)
- GI50 [6]: > 100 µM (inactive)
- GI50 [7]: > 100 µM (inactive)
- GI50 [8]: > 100 µM (inactive)
- GI50 [9]: > 100 µM (inactive)
- GI50 [10]: > 100 µM (inactive)
- GI50 [11]: > 100 µM (inactive)
- GI50 [12]: > 100 µM (inactive)
- GI50 [13]: > 100 µM
- GI50 [14]: 88.3 µM (inactive)
- GI50 [15]: > 100 µM (inactive)
- GI50 [16]: 9.75 µM (inactive)
- GI50 [17]: 78 µM (inactive)
- GI50 [18]: 15.5 µM (inactive)
- GI50 [19]: 87.7 µM (inactive)
- GI50 [20]: > 100 µM (inactive)
- GI50 [21]: > 100 µM (inactive)
- GI50 [22]: > 100 µM (inactive)
- GI50 [23]: > 100 µM (inactive)
- GI50 [24]: > 100 µM (inactive)
- GI50 [25]: > 100 µM (inactive)
- GI50 [26]: > 100 µM (inactive)
- GI50 [27]: > 100 µM (inactive)
- GI50 [28]: > 100 µM (inactive)
- GI50 [29]: > 100 µM (inactive)
- GI50 [30]: 91.6 µM (inactive)
- GI50 [31]: 15.5 µM (inactive)
- GI50 [32]: 46.5 µM (inactive)
- GI50 [33]: > 100 µM (inactive)
- GI50 [34]: > 100 µM (inactive)
- GI50 [35]: > 100 µM (inactive)
- GI50 [36]: > 100 µM (inactive)
- GI50 [37]: > 100 µM (inactive)
- GI50 [38]: 50.2 µM (inactive)
- GI50 [39]: 17.5 µM (inactive)
- GI50 [40]: > 100 µM (inactive)
- GI50 [41]: > 100 µM (inactive)
- GI50 [42]: > 100 µM (inactive)
- GI50 [43]: > 100 µM (inactive)
- GI50 [44]: > 100 µM (inactive)
- GI50 [45]: > 100 µM (inactive)
- GI50 [46]: > 100 µM (inactive)
- GI50 [47]: > 100 µM (inactive)
- GI50 [48]: > 100 µM (inactive)
- GI50 [49]: > 100 µM (inactive)
- GI50 [50]: 46 µM (inactive)
- GI50 [51]: > 100 µM (inactive)
- GI50 [52]: > 100 µM (inactive)
- GI50 [53]: > 100 µM (inactive)
- GI50 [54]: > 100 µM (inactive)
- GI50 [55]: > 100 µM (inactive)
